Values quoted from earlier work in US20220387435A1, “USE OF MULTI-TARGET PROTEIN KINASE INHIBITOR” (CSPC Zhongqi Pharmaceutical Technology (Shijiazhuang) Co., …, priority 2019, published 2022).
Entries after “also recorded” stand apart in the source; their conditions may differ.

Columns and labels:
AML patients [1] = conditions: cited from earlier work; for Main toxicity: similar products, prior art
AML patients [2] = conditions: cited from earlier work; for CR rates in monotherapy for R/R AML: Sorafenib 400 mg BID, Midostaurin 50 mg BID, Quizartinib 30-60 mg QD, Gilteritinib 120 mg QD
FLT3-TKD mutation = conditions: similar products, prior art; cited from earlier work
[3] = 120 mg daily, N = 246, ADMIRAL trial
[4] = phase 3 clinical trial of Gilteritinib
[5] = phase 3 clinical trial of Quizatinib
[6] = phase II trial of oral Quizartinib, relapsed/refractory AML
[7] = phase II trial of oral Quizartinib

For `CCc1nc(C(N)=O)c(Nc2ccc(N3CCC(N4CCN(C)CC4)CC3)c(OC)c2)nc1NC1CCOCC1` [Gilteritinib], the “Most common ADRs of grade ≥ 3: Anemia” value (AML patients [1]; [3]) is listed as 100 (40.7%), the “Most common ADRs of grade ≥ 3: Febrile neutropenia” value (AML patients [1]; [3]) is listed as 113 (45.9%) and the “Most common ADRs of grade ≥ 3: Thrombocytopenia” value (AML patients [1]; [3]) is listed as 56 (22.8%). The “Cardiotoxicity ADR: Cardiac failure” value (AML patients [1]; 120 mg daily, N = 292) was 4%, the “Cardiotoxicity ADR: Pericardial effusion” value (AML patients [1]; 120 mg daily, N = 292) was 3% and the “Cardiotoxicity ADR: Pericarditis” value (AML patients [1]; 120 mg daily, N = 292) was 2%. The “Cardiotoxicity ADR: QT interval prolongation” value (AML patients [1]; 120 mg daily, N = 292) was 8.4%, the “incidence of ALT elevation of all grades” value (AML patients [1]; [4]) was 26.3% and the “incidence of ALT elevation of grade ≥3” value (AML patients [1]; [4]) was 12.9%. The “incidence of AST elevation of all grades” value (AML patients [1]; [4]) was 80.6%, the “incidence of QT interval prolongation of all grades” value (AML patients [1]; [4]) was 8.8% and the “incidence of QT interval prolongation of grade ≥3” value (AML patients [1]; [4]) was 2.5%. The Main toxicity (AML patients [1]) was “Transaminase; also recorded: diarrhea”.
In the case of `CO[C@@H]1[C@H](N(C)C(=O)c2ccccc2)C[C@H]2O[C@]1(C)n1c3ccccc3c3c4c(c5c6ccccc6n2c5c31)C(=O)NC4` [Midostaurin], the Main toxicity (AML patients [1]) is given as “Gastrointestinal; also recorded: myelosuppression”.
In the case of `CC(C)(C)c1cc(NC(=O)Nc2ccc(-c3cn4c(n3)sc3cc(OCCN5CCOCC5)ccc34)cc2)no1` [Quizartinib], the CR (AML patients [2]; Quizatinib Japan phase 2 53 mg 26 cases, prior lines not limited) is given as 0 cases, the “CR rates in monotherapy for R/R AML” value (AML patients [2]) is given as 24-47% and the “serious hematological adverse reaction: anemia” value (AML patients [1]; [5]) is given as 25.9%. For the same compound, the “serious hematological adverse reaction: cytopenia” value (AML patients [1]; [5]) was 2.5%, the “serious hematological adverse reaction: febrile neutropenia” value (AML patients [1]; [5]) was 15.8% and the “serious hematological adverse reaction: leukopenia” value (AML patients [1]; [5]) was 18.0%. For the same compound, the “serious hematological adverse reaction: lymphopenia” value (AML patients [1]; [5]) was 4.0%, the “serious hematological adverse reaction: neutropenia” value (AML patients [1]; [5]) was 25.9% and the “serious hematological adverse reaction: thrombocytopenia” value (AML patients [1]; [5]) was 34.2%. For the same compound, the “adverse reaction: anemia” value (AML patients [1]; [6]) was 29%, the “adverse reaction: diarrhea” value (AML patients [1]; [6]) was 20% and the “adverse reaction: fatigue” value (AML patients [1]; [6]) was 20%. For the same compound, the “adverse reaction: febrile neutropenia” value (AML patients [1]; [6]) was 25%, the “adverse reaction: nausea” value (AML patients [1]; [6]) was 38% and the “adverse reaction: vomiting” value (AML patients [1]; [6]) was 26%. The dose-limiting toxicity response (AML patients [1]; [7]) was “QT prolongation of Grade 3”, the “patients discontinuing the treatment due to adverse events” value (AML patients [1]; [7]) was 10% and the Main toxicity (AML patients [1]) was “QTinterval; also recorded: myelosuppression”.
In the case of `CNC(=O)c1cc(Oc2ccc(NC(=O)Nc3ccc(Cl)c(C(F)(F)F)c3)cc2)ccn1` [Sorafenib], the “CR rates in monotherapy for R/R AML” value (AML patients [2]) is given as less than 10%, the Main toxicity (AML patients [1]) is given as “Rash, bleeding,; also recorded: myelosuppression” and the FLT3-TKD mutation activity (FLT3-TKD mutation) is given as “No”.
